# According to US8754079B2, “Cycloalkyl containing thienopyrimidines for pharmaceutical compositions” (Boehringer Ingelheim International GmbH, priority 2010, dated 2014):
# Where a name gives a salt, the structure may show the parent alone.
# Biological target: T1, MNK2 (Homo sapiens, UniProt Q9HBH9)
# T1 construct: the open reading frames of human Mnk1 and Mnk2a were amplified from cDNA; made in house; host or cells: E. coli BL21
# Assay: Mnk2a in vitro kinase assay (indirect fluorescence polarization)
# Assay type: biochemical
# Details: pre-activated GST-Mnk2a 2.5 nM, 20 μM ATP, 30 μM substrate peptide
# Outline: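 Human GST-Mnk2a was expressed in E. coli and activated in vitro with 150 nM pre-activated ERK2 and 50 μM ATP in HEPES pH 7.4/MgCl2 buffer (45 min, 30 °C). Activity on an eIF4E Ser209-derived 12mer peptide was read by competitive fluorescence polarization with a phospho-specific antibody.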
# T1 sequence (Q9HBH9 whole entry): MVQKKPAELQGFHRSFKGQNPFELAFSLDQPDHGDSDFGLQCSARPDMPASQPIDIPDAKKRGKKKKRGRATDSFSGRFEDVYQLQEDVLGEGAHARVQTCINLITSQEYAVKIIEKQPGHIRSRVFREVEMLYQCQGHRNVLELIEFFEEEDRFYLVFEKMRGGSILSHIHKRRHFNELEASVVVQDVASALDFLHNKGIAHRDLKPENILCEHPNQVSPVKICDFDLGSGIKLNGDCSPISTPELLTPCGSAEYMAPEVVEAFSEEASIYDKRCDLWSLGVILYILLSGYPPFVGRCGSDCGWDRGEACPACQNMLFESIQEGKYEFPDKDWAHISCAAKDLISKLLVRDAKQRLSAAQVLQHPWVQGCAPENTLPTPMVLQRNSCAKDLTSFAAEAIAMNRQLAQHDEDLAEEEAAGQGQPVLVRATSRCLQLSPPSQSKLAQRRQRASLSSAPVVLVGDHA
row,Structure (SMILES),IC50 [nM]
1,"Cc1c(C(=O)NCCCN(C)C)sc2ncnc(Nc3cccnc3O[C@H]3CC[C@H](O)CC3)c12 [Example 206, 4-[2-(trans-4-Hydroxy-cyclohexyloxy)-pyridin-3-ylamino]-5-methyl-thieno[2,3-d]pyrimidine-6-carboxylic acid (3-dimethylamino-propyl)-amide]",13
2,CNC(=O)c1sc2ncnc(Nc3cccnc3O[C@H]3CC[C@H](OC)CC3)c2c1C [Example 208],14
3,COC(=O)N[C@H]1CCC[C@@H]1Oc1cc(F)ccc1Nc1ncnc2sc(C(N)=O)c(C)c12 [Example 294],183
4,CO[C@H]1CC[C@H](Oc2cc(F)ccc2Nc2ncnc3sc(C(=O)NCC(C)O)c(C)c23)CC1 (stereo partly drawn) [Example 184],38
5,"Cc1c(C(=O)O)sc2ncnc(Nc3ccc(F)cc3O[C@H]3CCCC[C@H]3O)c12 (single isomer, unassigned) [Example 262, 4-[4-fluoro-2-(cis-2-hydroxy-cyclohexyloxy)-phenylamino]-5-methyl-thieno[2,3-d]pyrimidine-6-carboxylic acid]",23
6,CC(=O)N[C@H]1CC[C@H](Oc2cc(F)ccc2Nc2ncnc3sc(C(=O)N[C@@H]4C[C@H]4NC(=O)OC(C)(C)C)c(C)c23)C1 [Example 232],6
7,"COC(=O)c1sc2ncnc(Nc3ccc(F)cc3O[C@H]3CCCC[C@H]3O)c2c1C (single isomer, unassigned) [Example 257, 4-[4-fluoro-2-(cis-2-hydroxy-cyclohexyloxy)-phenylamino]-5-methyl-thieno[2,3-d]pyrimidine-6-carboxylic acid methyl ester]",141
8,CNC(=O)c1sc2ncnc(Nc3cccnc3O[C@H]3CC[C@H](N)CC3)c2c1C [Example 285],9
9,CCNC(=O)c1sc2ncnc(Nc3cccnc3O[C@H]3CC[C@H](N)CC3)c2c1C [Example 284],10
10,CNC(=O)CNC(=O)c1sc2ncnc(Nc3ccc(F)cc3O[C@H]3CC[C@H](OC)CC3)c2c1C [Example 188],20
11,"CO[C@@H]1CCCC[C@H]1Oc1cc(F)ccc1Nc1ncnc2sc(C(N)=O)c(C)c12 (racemic) [Example 50, Racemic 4-[4-Fluoro-2-(trans-2-methoxy-cyclohexyloxy)-phenylamino]-5-methyl-thieno[2,3-d]pyrimidine-6-carboxylic acid amide]",10
12,CO[C@H]1CC[C@H](Oc2cc(F)ccc2Nc2ncnc3sc(C(=O)NCCO)c(C)c23)CC1 [Example 196],17
13,"CC(=O)N(C)[C@H]1CC[C@H](Oc2cc(F)ccc2Nc2ncnc3sc(C(=O)NCCCN(C)C)c(C)c23)CC1 [Example 8, N-(3-(dimethylamino)propyl)-4-(4-fluoro-2-(trans-4-(N-methylacetamido)cyclohexyloxy)phenylamino)-5-methylthieno[2,3-d]pyrimidine-6-carboxamide]",12
14,"CO[C@@H]1CCC[C@@H](Oc2ncccc2Nc2ncnc3sc(C(N)=O)c(C)c23)C1 (racemic) [Example 131, Racemic 4-[2-((trans)-3-Methoxy-cyclohexyloxy)-pyridin-3-ylamino]-5-methyl-thieno[2,3-d]pyrimidine-6-carboxylic acid amide]",18
15,"CO[C@@H]1CCCC[C@H]1Oc1cc(F)ccc1Nc1ncnc2sc(C(N)=O)c(C)c12 [Example 249, 4-[4-Fluoro-2-((1R,2R)-2-methoxy-cyclohexyloxy)-phenylamino]-5-methyl-thieno[2,3-d]pyrimidine-6-carboxylic acid amide]",6
16,CO[C@@H]1CCCC[C@H]1Oc1cc(F)ccc1Nc1ncnc2sc(C(=O)NCCCN3CCCC3)c(C)c12 [Example 254],11
17,CO[C@H]1CCC[C@@H](Oc2ncccc2Nc2ncnc3sc(C(=O)NCCCCO)c(C)c23)C1 (racemic) [Example 113],23

row,Structure (SMILES),IC50 [nM]
1,"CN[C@H]1CC[C@H](Oc2cc(F)ccc2Nc2ncnc3sc(C(N)=O)c(C)c23)CC1 [Example 12, 4-(4-Fluoro-2-(trans-4-(methylamino)cyclohexyloxy)phenylamino)-5-methylthieno[2,3-d]pyrimidine-6-carboxamide]",7
2,COC1CCCC(Oc2ncccc2Nc2ncnc3sc(C(=O)NCC4CNCCO4)c(C)c23)C1 (mixture of isomers) [Example 119],11
3,"CO[C@@H]1CCC[C@@H](Oc2cc(F)ccc2Nc2ncnc3sc(C(N)=O)c(C)c23)C1 (racemic) [Example 79, Racemic 4-[4-Fluoro-2-((trans)-3-methoxy-cyclohexyloxy)-phenylamino]-5-methyl-thieno[2,3-d]pyrimidine-6-carboxylic acid amide]",15
4,CO[C@@H]1CCCC[C@H]1Oc1cc(F)ccc1Nc1ncnc2sc(C(=O)NCC[S+](C)[O-])c(C)c12 (stereo partly drawn) [Example 255],14
5,"CC(=O)N[C@H]1C[C@H](Oc2cc(F)ccc2Nc2ncnc3sc(C(N)=O)c(C)c23)C1 [Example 35.3, 4-[2-(trans-3-Acetylamino-cyclobutoxy)-4-fluoro-phenylamino]-5-methyl-thieno[2,3-d]pyrimidine-6-carboxylic acid amide]",23
6,"Cc1c(C(N)=O)sc2ncnc(Nc3ccc(F)cc3O[C@H]3CC[C@H](NS(C)(=O)=O)CC3)c12 [Example 3, 4-[4-Fluoro-2-(trans-4-methanesulfonylamino-cyclohexyloxy)-phenylamino]-5-methyl-thieno[2,3-d]pyrimidine-6-carboxylic acid amide]",10
7,COC(=O)c1sc2ncnc(Nc3ccc(F)cc3OC3C[C@@H](O)C[C@H](O)C3)c2c1C (relative stereo) [Example 30.1],9
8,CO[C@H]1CC[C@H](Oc2cc(F)ccc2Nc2ncnc3sc(C(=O)NCCCN4CCCCC4)c(C)c23)CC1 [Example 275],10
9,"Cc1c(C(N)=O)sc2ncnc(Nc3ccc(F)cc3OC3CCCC3)c12 [Example 244, 4-(2-Cyclopentoxy-4-fluoro-phenylamino)-5-methyl-thieno[2,3-d]pyrimidine-6-carboxylic acid amide]",2
10,CONC(=O)c1sc2ncnc(Nc3ccc(F)cc3O[C@H]3CC[C@H](NC(C)=O)C3)c2c1C [Example 236],16
11,CO[C@@H]1CCC[C@@H](Oc2ncccc2Nc2ncnc3sc(C(=O)NCCCN4CCOCC4)c(C)c23)C1 (racemic) [Example 139],84
12,CO[C@@H]1CCC[C@@H](Oc2ncccc2Nc2ncnc3sc(C(=O)NC4CCN(C)CC4)c(C)c23)C1 (racemic) [Example 144],89
13,"Cc1c(C(N)=O)sc2ncnc(Nc3ccc(F)cc3OC3CCC(O)C3)c12 (stereo not drawn) [Example 225, 4-(4-fluoro-2-(3-hydroxycyclopentyloxy)phenylamino)-5-methylthieno[2,3-d]pyrimidine-6-carboxamide]",6
14,COC1CCCC(Oc2ncccc2Nc2ncnc3sc(C(=O)NC4CCN(C)CC4)c(C)c23)C1 (stereo not drawn) [Example 123],26
15,"Cc1c(C(=O)NCCO)sc2ncnc(Nc3ccc(F)cc3OC3CCC(O)C3)c12 (stereo not drawn) [Example 227, 4-(4-Fluoro-2-(3-hydroxycyclopentyloxy)phenylamino)-N-(2-hydroxyethyl)-5-methylthieno[2,3-d]pyrimidine-6-carboxamide]",12
16,CO[C@@H]1CCC[C@@H](Oc2ncccc2Nc2ncnc3sc(C(=O)NCC4CNCCO4)c(C)c23)C1 (relative stereo) [Example 140],49

# The remaining compounds from weak to strong by IC50, led by results:
row,IC50 [nM],Structure (SMILES)
1,152,CC(=O)N[C@H]1C[C@H](Oc2cc(F)ccc2Nc2ncnc3sc(C(=O)NCCO)c(C)c23)C1 [Example 41]
2,90,CO[C@@H]1C[C@H](OC)C[C@H](Oc2cc(F)ccc2Nc2ncnc3sc(C(N)=O)c(C)c23)C1 [Example 29]
3,77,CO[C@@H]1CCC[C@@H](Oc2ncccc2Nc2ncnc3sc(C(=O)NCCO)c(C)c23)C1 (relative stereo) [Example 143]
4,66,"COC(=O)c1sc2ncnc(Nc3cccnc3O[C@H]3CC[C@H](N)CC3)c2c1C [Example 281, 4-[2-(4-Amino-cyclohexyloxy)-pyridin-3-ylamino]-5-methyl-thieno[2,3-d]pyrimidine-6-carboxylic acid methyl ester]"
5,58,Cc1c(C(=O)NCCCN2CCC2)sc2ncnc(Nc3cccnc3O[C@H]3CC[C@H](O)CC3)c12 [Example 270]
6,36,COC1CCCC(Oc2cc(F)ccc2Nc2ncnc3sc(C(=O)NCC4COCCN4)c(C)c23)C1 (stereo not drawn) [Example 99]
7,17,Cc1c(C(=O)NCc2cnco2)sc2ncnc(Nc3ccc(F)cc3O[C@@H]3CCC[C@@H](O)C3)c12 (racemic) [Example 62]
8,17,CO[C@H]1CC[C@H](Oc2cc(F)ccc2Nc2ncnc3sc(C(=O)NCc4cnco4)c(C)c23)CC1 [Example 185]
9,11,Cc1c(C(=O)NCC2CNCCO2)sc2ncnc(Nc3ccc(F)cc3O[C@H]3CC[C@H](O)CC3)c12 (stereo partly drawn) [Example 166]
10,10,Cc1c(C(=O)NCc2cnco2)sc2ncnc(Nc3ccc(F)cc3O[C@H]3CC[C@H](O)CC3)c12 [Example 162]
11,10,Cc1c(C(=O)NCC#CCN(C)C)sc2ncnc(Nc3cccnc3O[C@H]3CC[C@H](O)CC3)c12 [Example 267]
12,9,Cc1c(C(N)=O)sc2ncnc(Nc3ccc(F)cc3O[C@H]3C[C@@H]4OCO[C@@H]4C3)c12 [Example 214]
13,7,"Cc1c(C(N)=O)sc2ncnc(Nc3ccc(F)cc3O[C@H]3CC[C@H](N)C3)c12 [Example 229, 4-[2-((1S,3S)-3-Amino-cyclopentyloxy)-4-fluoro-phenylamino]-5-methyl-thieno[2,3-d]pyrimidine-6-carboxylic acid amide trifluoroacetate]"
14,4,CCCCNC(=O)c1sc2ncnc(Nc3cccnc3O[C@H]3CC[C@H](N)CC3)c2c1C [Example 286]
15,2,"CCCNC(=O)c1sc2ncnc(Nc3cccnc3O[C@H]3CC[C@H](N)CC3)c2c1C [Example 289, 4-[2-(4-Amino-cyclohexyloxy)-pyridin-3-ylamino]-5-methyl-thieno[2,3-d]pyrimidine-6-carboxylic acid propyl amide]"
